Source: patent publication US10016356B2, “Sebum secretion inhibitory agent” (BASF Beauty Care Solutions France S.A.S., priority 2008, dated 2018)

Tests used:
[1] = test system: Caucasian and Asian volunteers; test: Determination of squalene in Sebutape patches (HPTLC, densitometry); format: in vivo, human; conditions: after 28 days of treatment; zinc gluconate 1%
Protocol: (§1) The principle of this evaluation is based on the clinical and instrumental analysis of samples of secretions of sebum using Sebutape™ patches according to the conventional method.
(§2) Caucasian and Asian volunteers applied a test product once a day, in blind conditions. Clinical and instrumental assessments, by application of Sebutape™ patches, were carried out on D0, D14 and D28 and the contents of these samples of Sebutape™ patches were analysed quantitatively by image analyser (polarimetric imaging). Determination of the squalene taken in the Sebutape™ patches was carried out as follows:
The Sebutape™ patches were treated by extraction with 10 ml of ether. The lipid residues were deposited on an HPTLC silica gel nanoplate on an aluminium support, one lane of which was reserved for receiving a deposit of 10 μg of squalene standard.
The contents of the plates were subjected to migration in heptane.
The squalene spots were then quantified by densitometry using an instrument of the ChromatoScan CS-93 (Shimadzu) type. Reading was based on absorption at 450 nm and the area of the peaks was expressed in arbitrary units in the table of results given below.

[2] = test system: squalene synthesis on explants of normal human skin; test: Biosynthesis of squalene from 4-14C mevalonate on explants of normal human skin (in vitro); format: cell-based; conditions: percentage relative to untreated negative control; extracts of culture media; 24 h; n=3 biopsies; extract at 2%, zinc gluconate at 1%
Protocol: The principle of this evaluation is based on the measurement of the biosynthesis of squalene, a specific tracer of the production of human sebum by the sebocytes, from radiolabelled mevalonic acid.
1) Freshly taken biopsies of human skin (n=3) are incubated in 5 ml of culture medium in the presence or absence of the test products for 24 h.
2) An amount of radioactive products of 2 μCi of mevalonate 4-^14C is then added to the biopsies and the whole is incubated again for 24 h.
3) Extraction of the culture media and of the surface of the skin is carried out with isopropyl ether, then the skin samples are dried and weighed as dry weight.
4) The extraction products are analysed by thin-layer chromatography and the quantity of metabolites of ^14C-mevalonate (squalene) is evaluated.
The squalene on the surface of the skin in culture is extracted, then deposited on HPTLC (high-performance thin layer chromatography) plates and migrated after addition of 10 μg of a squalene standard by deposition in the presence of heptane as migration solvent. The radioactivity of the squalene is visualized in a conventional manner. Each radioactive spot corresponding to squalene is scraped onto the HPTLC plates and the radioactivity is measured using a scintillation counter. Each count was expressed in grams of dry tissue. […]

[3] = test system: Caucasian and Asian volunteers; test: Number of active sebaceous glands (number of spots on Sebutape patches, image analysis); format: in vivo, human; conditions: extract at 2%, zinc gluconate 1%
Protocol: as §1, §2
At 28 days of treatment, the number of active sebaceous glands had decreased by 7.4% in the subjects who had applied the extract according to Example 1a) at 2% (measurement of the number of spots present on the patches compared against D0).
(§3) The experiment was conducted on Caucasian and Asian volunteers according to the conditions described in Example 3 for 28 days of treatment (last application on D27 in the evening). Assessments carried out on D30 allowed the persistence of the effect of an extract according to the invention on the production of sebum to be evaluated, two days after stopping the treatment.

[4] = test system: Caucasian and Asian volunteers; test: Clinical assessment of pore size and shiny appearance in volunteers applying the product once a day; format: in vivo, human; conditions: after 28 days of treatment, extract at 2%, zinc gluconate 1%
Protocol: as §2, §3

Asian volunteers = test: Self-evaluation of skin texture (refinement of skin grain); format: in vivo, human; conditions: 2 days after stopping the 28-day treatment, extract at 2%, zinc gluconate positive control
Protocol: as §3
Moreover, 2 days after stopping the treatment, 71% of the Asian volunteers who had applied the extract according to Example 1a) at 2% declared that there was refinement of their skin grain (p<0.05). In comparison, only 52% of the volunteers in the group of volunteers who had applied the positive control (zinc gluconate) noticed an improvement in this parameter.

## zinc gluconate
[1]
  change of content of squalene in the sebum (signed): −14%
[2]
  Measurement of squalene synthesis, Mean value: 76.6%
[3]; 2 days after D 28 (after stopping the treatment)
  Active sebaceous glands, % Dn/D 0: −3.8%
[3]; D 28
  Active sebaceous glands, % Dn/D 0: +8.5%
[4]
  pore size reduced by (clinical assessment): 17.5%
Asian volunteers
  volunteers declaring refinement of their skin grain (self-evaluation): 52%
